Test results reported in US8722052B2, “Vaccinia virus protein A46 peptide and use thereof” (priority 2008, dated 2014).

System: IκBα
Test: LPS-induced IκBα degradation in RAW264.7 cells, immunoblot
Format: cell-based, murine
Conditions: peptide 4 μM 1 h before 10 ng/ml LPS for 5, 15, 30 or 60 min
Protocol: FIGS. 25A and B are immunoblots showing the effect of A464 on LPS-induced IκBα degradation in murine RAW264.7 cells. Cells were seeded in 6-well plates at 1.5×10^5 cells/ml 24 hours prior to treatment with peptides. […] Cells were stimulated with 10 ng/ml LPS for a period of 5, 15, 30 or 60 min and then harvested on ice and lysed in 1% NP-40 containing lysis buffer. Lysates then were denatured using 5× sample buffer with DTT and resolved by SDS-PAGE. The proteins were transferred to PVDF membrane and the membrane was immunoblotted for IκBα (A). Equal protein loading was confirmed by re-probing the blot for β-actin (B). The blots shown are representative of two experiments;
RAW264.7 cells were seeded at a density of 1×10^5 cells/ml in 6 well plates. […] The protein concentration was determined by monitoring the change in the solution absorbance at 280 nm using a spectrophotometer compared to protein standards. […] Thereafter, the membranes were washed, incubated in appropriate secondary antibody and then developed using standard enhanced chemi-luminescence (ECL) reagents.
To further assay activation of NFκB, the degradation of its inhibitor IκBα, an event required for the translocation of the NFκB into the nucleus, was measured. […]

KYSFKLILAEYRRRRRRRRR [Peptide A464]
effect on LPS-induced IκBα degradation: blocked the degradation of IκBα seen at 15 and 30 min
